pIC50: −log10 of the molar value.
Experiments:
[1] = molecular target: Epidermal growth factor receptor (Homo sapiens, UniProt P00533); experiment: Inhibition of C-terminal His-tagged and N-terminal GST tagged human EGFR (668 to 1210 residues) expressed in baculovirus infected Sf9 cells using KHKKLAEGSAYEEV substrate peptide and gamma-[32P]ATP
[2] = Inhibition of NF-kappaB (unknown origin) expressed in human U937 cells by luciferase reporter gene assay; type: cell-based; details: U-937
MDA-MB-231 = experiment: Growth inhibition of human MDA-MB-231 cells incubated for 72 hrs by Cell-titer Glo luciferase-based assay; type: functional; details: MDA-MB-231, 72 h

Chain of Epidermal growth factor receptor (P00533 whole entry, the tested form may be a part): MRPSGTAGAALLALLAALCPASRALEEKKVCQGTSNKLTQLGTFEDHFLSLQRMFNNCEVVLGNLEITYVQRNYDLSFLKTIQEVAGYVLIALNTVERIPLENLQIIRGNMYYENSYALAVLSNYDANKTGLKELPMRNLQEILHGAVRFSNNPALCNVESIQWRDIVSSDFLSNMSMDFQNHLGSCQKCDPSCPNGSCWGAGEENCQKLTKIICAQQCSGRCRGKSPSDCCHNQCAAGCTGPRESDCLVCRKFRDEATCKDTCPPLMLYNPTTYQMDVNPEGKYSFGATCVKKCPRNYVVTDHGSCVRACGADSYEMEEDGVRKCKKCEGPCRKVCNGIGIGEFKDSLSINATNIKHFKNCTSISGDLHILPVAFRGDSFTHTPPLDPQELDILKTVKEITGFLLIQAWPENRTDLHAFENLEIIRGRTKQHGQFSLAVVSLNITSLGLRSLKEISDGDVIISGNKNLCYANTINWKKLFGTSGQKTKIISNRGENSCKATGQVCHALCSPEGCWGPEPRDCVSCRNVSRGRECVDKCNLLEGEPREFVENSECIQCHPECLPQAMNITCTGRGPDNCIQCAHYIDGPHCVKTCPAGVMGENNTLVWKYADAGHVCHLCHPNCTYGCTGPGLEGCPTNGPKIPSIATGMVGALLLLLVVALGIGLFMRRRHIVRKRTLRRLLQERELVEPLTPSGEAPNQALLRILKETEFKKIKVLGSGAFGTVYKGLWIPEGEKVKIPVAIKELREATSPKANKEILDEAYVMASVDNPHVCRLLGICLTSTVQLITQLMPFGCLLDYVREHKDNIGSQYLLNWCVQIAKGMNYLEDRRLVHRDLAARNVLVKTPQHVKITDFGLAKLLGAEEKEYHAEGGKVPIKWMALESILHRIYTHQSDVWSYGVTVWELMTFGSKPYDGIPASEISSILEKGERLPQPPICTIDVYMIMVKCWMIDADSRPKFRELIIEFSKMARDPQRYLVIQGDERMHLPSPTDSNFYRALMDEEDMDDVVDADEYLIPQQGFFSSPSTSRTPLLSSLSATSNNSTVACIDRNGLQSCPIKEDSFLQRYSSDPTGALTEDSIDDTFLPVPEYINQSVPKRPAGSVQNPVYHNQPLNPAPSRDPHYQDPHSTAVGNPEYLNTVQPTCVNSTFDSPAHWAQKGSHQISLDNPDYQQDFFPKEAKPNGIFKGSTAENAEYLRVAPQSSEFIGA

pIC50 [1]: 7.22
pIC50 [2]: 6.52
GI50 (MDA-MB-231): 1100 nM
SMILES: Fc1cc(F)cc(NC(=S)Nc2ccc3ncnc(Nc4cccc(Br)c4)c3c2)c1

Source: ChEMBL document CHEMBL4251580, “Exploiting polypharmacology for improving therapeutic outcome of kinase inhibitors (KIs): An update of recent medicinal chemistry efforts” (Eur J Med Chem, 2018)
